Assay results as given in PMC4336625 (ACS Chemical Biology, 2014).
pIC50: −log10 of the molar value.

How the values were obtained:
[1] = molecular target: PldA (Pseudomonas aeruginosa, UniProt Q9HYC2); assay type: biochemical
[2] = molecular target: recombinant human NAPE-PLD (Homo sapiens, UniProt Q6IQ20); experiment: NAPE-PLD activity assay; assay type: biochemical; details: 20 μM
[3] = molecular target: PLD2 (Homo sapiens, UniProt O14939); details: cited from earlier work
[4] = molecular target: T1, PLD1 (Homo sapiens, UniProt Q13393); details: cited from earlier work
T1 sequence (Q13393 1-1074): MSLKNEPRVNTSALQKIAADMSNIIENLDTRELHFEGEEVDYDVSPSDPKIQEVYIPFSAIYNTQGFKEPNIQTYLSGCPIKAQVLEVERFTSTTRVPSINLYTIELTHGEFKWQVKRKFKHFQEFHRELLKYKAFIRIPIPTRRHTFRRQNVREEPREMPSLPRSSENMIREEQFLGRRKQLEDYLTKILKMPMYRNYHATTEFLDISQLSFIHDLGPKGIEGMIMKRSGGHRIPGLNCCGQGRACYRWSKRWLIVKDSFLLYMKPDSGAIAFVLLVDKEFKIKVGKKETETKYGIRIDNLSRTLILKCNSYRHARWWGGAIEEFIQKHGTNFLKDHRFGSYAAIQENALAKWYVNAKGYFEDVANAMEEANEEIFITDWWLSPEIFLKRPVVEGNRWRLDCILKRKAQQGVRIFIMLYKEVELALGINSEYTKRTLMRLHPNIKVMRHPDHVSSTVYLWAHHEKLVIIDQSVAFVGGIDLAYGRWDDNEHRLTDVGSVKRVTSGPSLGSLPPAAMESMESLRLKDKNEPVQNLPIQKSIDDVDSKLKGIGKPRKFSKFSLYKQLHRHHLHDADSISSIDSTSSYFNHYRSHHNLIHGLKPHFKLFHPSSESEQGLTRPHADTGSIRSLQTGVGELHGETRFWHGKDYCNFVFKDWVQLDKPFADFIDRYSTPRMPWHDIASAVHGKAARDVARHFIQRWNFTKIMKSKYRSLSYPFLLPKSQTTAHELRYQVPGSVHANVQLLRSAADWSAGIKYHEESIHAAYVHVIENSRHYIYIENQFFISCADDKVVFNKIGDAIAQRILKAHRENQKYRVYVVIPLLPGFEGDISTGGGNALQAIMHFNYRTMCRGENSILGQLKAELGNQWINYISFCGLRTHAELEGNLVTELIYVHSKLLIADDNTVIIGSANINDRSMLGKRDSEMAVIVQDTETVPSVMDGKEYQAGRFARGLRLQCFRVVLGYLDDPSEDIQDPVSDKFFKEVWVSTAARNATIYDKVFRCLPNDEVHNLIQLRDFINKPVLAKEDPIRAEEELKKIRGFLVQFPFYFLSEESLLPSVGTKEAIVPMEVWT

[5] = molecular target: T1, PLD1; assay type: cell-based; details: read-out: mammalian PLD1 IC50

PLD2, sequence (O14939 whole entry): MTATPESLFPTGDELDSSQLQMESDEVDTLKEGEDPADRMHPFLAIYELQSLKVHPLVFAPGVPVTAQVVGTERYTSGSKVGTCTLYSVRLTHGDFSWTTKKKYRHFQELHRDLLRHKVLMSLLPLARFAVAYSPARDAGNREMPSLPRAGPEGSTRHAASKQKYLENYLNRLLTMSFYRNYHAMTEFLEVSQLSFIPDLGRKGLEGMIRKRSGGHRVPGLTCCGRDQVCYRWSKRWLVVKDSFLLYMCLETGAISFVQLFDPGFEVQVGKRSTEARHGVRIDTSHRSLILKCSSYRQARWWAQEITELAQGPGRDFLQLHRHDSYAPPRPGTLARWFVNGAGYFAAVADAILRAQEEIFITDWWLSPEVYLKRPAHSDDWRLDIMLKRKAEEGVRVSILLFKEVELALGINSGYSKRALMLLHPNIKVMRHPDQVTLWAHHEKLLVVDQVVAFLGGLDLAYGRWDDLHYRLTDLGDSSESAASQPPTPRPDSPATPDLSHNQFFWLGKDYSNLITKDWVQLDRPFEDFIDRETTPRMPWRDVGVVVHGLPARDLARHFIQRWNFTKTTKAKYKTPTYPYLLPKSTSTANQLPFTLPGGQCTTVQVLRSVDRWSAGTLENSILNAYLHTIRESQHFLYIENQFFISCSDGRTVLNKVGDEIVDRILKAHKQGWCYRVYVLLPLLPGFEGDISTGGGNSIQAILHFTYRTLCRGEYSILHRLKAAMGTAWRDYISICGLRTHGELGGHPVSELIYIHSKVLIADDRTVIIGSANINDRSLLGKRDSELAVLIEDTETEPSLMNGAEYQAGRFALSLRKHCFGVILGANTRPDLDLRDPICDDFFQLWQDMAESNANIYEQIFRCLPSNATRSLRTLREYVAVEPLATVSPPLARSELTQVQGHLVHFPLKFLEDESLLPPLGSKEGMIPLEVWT
PldA, sequence (Q9HYC2 1-1099): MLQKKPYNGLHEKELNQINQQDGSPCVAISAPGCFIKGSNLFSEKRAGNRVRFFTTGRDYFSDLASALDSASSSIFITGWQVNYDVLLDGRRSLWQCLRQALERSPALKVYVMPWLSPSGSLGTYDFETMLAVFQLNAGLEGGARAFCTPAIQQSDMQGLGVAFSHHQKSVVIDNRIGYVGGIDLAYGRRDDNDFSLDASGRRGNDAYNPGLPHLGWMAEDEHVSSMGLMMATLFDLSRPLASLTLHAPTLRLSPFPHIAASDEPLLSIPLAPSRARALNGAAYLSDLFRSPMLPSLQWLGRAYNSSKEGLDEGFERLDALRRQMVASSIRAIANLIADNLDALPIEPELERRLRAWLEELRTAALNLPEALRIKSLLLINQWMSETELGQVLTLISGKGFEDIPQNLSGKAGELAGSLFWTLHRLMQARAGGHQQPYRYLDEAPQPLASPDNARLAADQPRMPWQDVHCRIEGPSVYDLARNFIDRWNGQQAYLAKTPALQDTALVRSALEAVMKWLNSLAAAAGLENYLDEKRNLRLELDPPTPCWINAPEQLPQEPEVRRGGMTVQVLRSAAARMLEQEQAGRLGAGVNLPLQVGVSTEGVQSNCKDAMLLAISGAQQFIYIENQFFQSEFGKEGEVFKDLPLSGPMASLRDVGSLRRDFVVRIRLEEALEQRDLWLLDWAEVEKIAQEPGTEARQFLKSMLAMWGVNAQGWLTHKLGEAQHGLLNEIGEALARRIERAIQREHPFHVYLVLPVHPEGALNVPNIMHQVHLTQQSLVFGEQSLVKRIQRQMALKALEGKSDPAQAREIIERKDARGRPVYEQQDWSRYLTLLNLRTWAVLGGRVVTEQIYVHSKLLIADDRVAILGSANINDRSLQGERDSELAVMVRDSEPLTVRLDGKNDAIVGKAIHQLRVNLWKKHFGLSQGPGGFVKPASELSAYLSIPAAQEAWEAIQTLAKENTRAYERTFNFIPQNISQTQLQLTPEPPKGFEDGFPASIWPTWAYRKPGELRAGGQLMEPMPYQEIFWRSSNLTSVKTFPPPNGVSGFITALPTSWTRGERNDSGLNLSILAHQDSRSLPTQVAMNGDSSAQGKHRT
recombinant human NAPE-PLD, sequence (Q6IQ20 whole entry): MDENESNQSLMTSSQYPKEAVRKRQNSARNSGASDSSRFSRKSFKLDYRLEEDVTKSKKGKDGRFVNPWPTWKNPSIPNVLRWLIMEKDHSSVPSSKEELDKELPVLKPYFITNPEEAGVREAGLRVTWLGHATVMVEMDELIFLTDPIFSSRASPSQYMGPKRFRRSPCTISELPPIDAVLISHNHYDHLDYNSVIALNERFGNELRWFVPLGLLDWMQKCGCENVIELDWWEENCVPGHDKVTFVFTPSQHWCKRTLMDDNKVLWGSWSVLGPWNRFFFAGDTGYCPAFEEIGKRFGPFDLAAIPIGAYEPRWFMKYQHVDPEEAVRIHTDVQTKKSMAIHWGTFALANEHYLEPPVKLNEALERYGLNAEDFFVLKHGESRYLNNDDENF

Compound	fold more potent at PldA than inhibitors 2, 3 and 1 [1]	inhibition of NAPE-PLD activity, single point [2]	PLD2 IC50 [3]	PLD1 IC50 [4]	pIC50 [5]
O=C(c1ccc(OCCN2CCCCC2)cc1)c1c(-c2ccc(O)cc2)sc2cc(O)ccc12 [Compound 7, raloxifene]	5- to 10 fold	not to inhibit			
CC/C(=C(\c1ccccc1)c1ccc(OCCN(C)C)cc1)c1ccccc1 [Compound 8, tamoxifen]			stimulated	no effect	< 4.70
